SMILES strings stand for the structures.

Assay [1] addresses T1, WRN (Homo sapiens, UniProt Q14191).
T1 construct: A His-tagged construct of WRN (AA S2-S1235) was produced and used for the ATPase assay; made in house; host or cells: Sf9 insect cells (baculovirus, pFastBac1)
The experiment in a line: WRN ATPase Activity Assay (ADP-Glo). The format is biochemical. The conditions noted are these: 1-hr pre-incubation with enzyme; 100 μM ATP, 25 nM forked dsDNA, 1 nM WRN; geometric mean of at least 2 replicates. The method, then: Compounds of the Examples were tested for WRN ATPase activity. WRN ATPase activity catalyzes ATP hydrolysis to produce ADP and phosphate. DNA encoding the target protein, 6×HIS-TEV-WRN-517-945, was produced, cloned and transfected as detailed in Example D. The amount of ADP produced was measured using ADP-Glo™ Kinase Assay kit from Promega Corporation in a Greiner white regular volume 384 wells assay plate (Greiner #781075). Data was normalized to a standard curve generated using various ADP concentrations and the corresponding luminescent signal intensities at each concentration.
The assay conditions were optimized for enzyme concentration (WRN), substrate concentrations (ATP & dsDNA), and the linearity of the ATPase reaction, in the following assay buffer: 50 mM Tris-HCl, pH-7.5, 2 mM MgCl2, 50 mM NaCl, 1 mM EGTA, 0.01% P-20, 0.05% BSA, and 2 mM DTT prepared with nuclease free water.
A serial dilution (1:3 scheme) of the compounds were prepared in neat DMSO, with 100 nL of the compounds dispensed in the 384 wells assay plate. An 1-hr pre-incubation of the compounds with enzyme was included. A His-tagged construct of WRN (AA S2-S1235) was produced and used for the ATPase assay. Maximum inhibition control wells were set up with the addition of only assay buffer, and no inhibition control wells were set up with neat DMSO without test compounds. The reaction was initiated by addition of 5 μL substrate mix (200 μM ultrapure ATP, and 50 nM dsDNA prepared in assay buffer) and incubated at 25° C. for 35 min. A forked dsDNA oligomer substrate was prepared by annealing equal amounts of oligo GPat-1 ([BHQ2][…]) and oligo GPat-2 ([…][TAM]) and was used as dsDNA substrate for WRN ATPase assay. A typical ATPase reaction consists of 25 nM forked dsDNA, 100 μM ATP, and 1 nM WRN prepared in assay buffer. The WRN ATPase reaction was stopped by the addition of 5 μL of ADP-Glo Reagent from ADP-Glo™ Kinase Assay kit and incubated for 40 min to deplete the unreacted ATP. Afterwards, 5 μL of Kinase Detection Reagent from the ADP-Glo™ Kinase Assay kit was added and incubated for 1 hr for the development of luminescence signal.
Luminesce signals were measured on BMG PHERAstar FSX using luminescence protocol. Data analysis was carried out using Genedata software following % of control normalization. Fitting parameters include dose response IC50, Hill slope (n), maximum inhibition (S∞), and minimum inhibition (S0). The reported IC50 values for compounds in this invention are the geometric means of at least 2 independent replicates.
A general note: ADP-Glo first removes unused ATP, then detects ADP through luciferase.

For assay [2], the target named is T1, WRN. The experiment in a line: WRN Helicase Activity Assay (fluorescence DNA unwinding). Type of assay: biochemical. The conditions noted are these: 1-hr pre-incubation with enzyme; 100 μM ATP, 25 nM forked dsDNA, 1 nM WRN; geometric mean of at least 2 replicates. The method, then: Compounds of the examples were tested for WRN helicase activity. DNA encoding the target protein, 6×HIS-TEV-WRN-517-945, was produced, cloned and transfected as detailed in Example D. To determine the inhibitory properties of the compounds, a 384 wells plate-based Helicase assay was set up to measure the extent of DNA unwinding (Helicase) activity of WRN. The WRN Helicase assay was designed to measure increase in fluorescence signal using a fluorescence based, donor-quencher paired forked dsDNA oligomer substrate (custom synthesis from Sigma-Aldrich) prepared by annealing equal amounts of oligo GPat-1 ([BHQ2][…]) and oligo GPat-2 ([…][TAM]). Continuous measurement of fluorescent signal was used to optimize the buffer conditions, concentration of enzyme (WRN), concentration of substrates (ATP & dsDNA), and the linearity of the Helicase reaction. All solutions were prepared in the following assay buffer: 50 mM Tris-HCl, pH-7.5, 2 mM MgCl2, 50 mM NaCl, 1 mM EGTA, 0.01% P-20, 0.05% BSA, and 2 mM DTT prepared with nuclease free water.
A serial dilution (1:3 scheme) of the compounds was prepared in neat DMSO and 100 nL of the compounds was dispensed in the Greiner black low volume (Greiner #784076) 384 wells assay plate. An 1-hr pre-incubation of the compounds with enzyme was included. A His-tagged construct of WRN (AA S2-S1235) was produced and used for the ATPase assay. Maximum inhibition control wells were set up with the addition of only assay buffer, and no inhibition control wells were set up with neat DMSO without test compounds. The reaction was initiated by addition of 5 μL substrate mix (200 μM ultrapure ATP, and 50 nM dsDNA prepared in assay buffer) and incubated at 25° C. for 35 min. A typical Helicase reaction consists of 25 nM forked dsDNA, 100 μM ATP, and 1 nM WRN prepared in assay buffer. The WRN Helicase reaction was quenched by the addition of 5 μL ‘STOP’ solution containing 100 mM EDTA (final EDTA concentration 33.33 mM) prepared in assay buffer. The plates were read on BMG PHERAstar FSX using 540/590 module to measure an increase of fluorescence. Data analysis was carried out using the Genedata software following % of control normalization. Fitting parameters include dose response IC50, Hill slope (n), maximum inhibition (S∞), and minimum inhibition (S0). The reported IC50 values for compounds in this invention are the geometric means of at least 2 independent replicates.

T1 sequence (Q14191 2-1235): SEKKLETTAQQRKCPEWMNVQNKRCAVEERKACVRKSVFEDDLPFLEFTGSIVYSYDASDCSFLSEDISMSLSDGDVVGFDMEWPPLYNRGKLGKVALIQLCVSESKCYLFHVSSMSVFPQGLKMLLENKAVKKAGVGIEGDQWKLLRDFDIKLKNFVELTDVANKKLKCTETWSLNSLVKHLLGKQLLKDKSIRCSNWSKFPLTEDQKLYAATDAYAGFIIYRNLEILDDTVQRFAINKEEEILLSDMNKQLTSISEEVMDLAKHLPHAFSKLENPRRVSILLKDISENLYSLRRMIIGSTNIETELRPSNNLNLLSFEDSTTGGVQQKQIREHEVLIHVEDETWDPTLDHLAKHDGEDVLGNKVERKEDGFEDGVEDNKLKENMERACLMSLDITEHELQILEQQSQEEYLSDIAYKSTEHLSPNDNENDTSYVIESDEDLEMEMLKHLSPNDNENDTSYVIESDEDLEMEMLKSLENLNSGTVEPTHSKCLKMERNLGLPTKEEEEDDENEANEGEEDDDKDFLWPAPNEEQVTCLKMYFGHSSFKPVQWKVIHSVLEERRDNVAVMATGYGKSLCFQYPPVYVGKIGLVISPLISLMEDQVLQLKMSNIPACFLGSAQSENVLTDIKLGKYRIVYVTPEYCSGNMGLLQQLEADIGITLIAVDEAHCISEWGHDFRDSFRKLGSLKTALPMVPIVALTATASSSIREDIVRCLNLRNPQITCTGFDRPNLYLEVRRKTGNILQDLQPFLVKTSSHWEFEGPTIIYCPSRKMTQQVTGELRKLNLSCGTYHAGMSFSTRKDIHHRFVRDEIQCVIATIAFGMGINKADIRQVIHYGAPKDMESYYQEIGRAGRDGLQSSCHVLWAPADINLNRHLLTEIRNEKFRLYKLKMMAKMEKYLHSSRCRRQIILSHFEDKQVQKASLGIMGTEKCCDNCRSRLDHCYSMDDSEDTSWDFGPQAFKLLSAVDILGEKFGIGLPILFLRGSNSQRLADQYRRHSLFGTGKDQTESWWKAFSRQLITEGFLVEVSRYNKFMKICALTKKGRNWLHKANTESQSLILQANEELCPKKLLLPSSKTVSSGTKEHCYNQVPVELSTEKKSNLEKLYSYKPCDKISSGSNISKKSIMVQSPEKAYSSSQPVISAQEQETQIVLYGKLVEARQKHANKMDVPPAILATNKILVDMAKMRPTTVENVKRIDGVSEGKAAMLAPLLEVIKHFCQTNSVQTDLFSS

As usually defined, the IC50 is the point on the concentration scale where inhibition reaches its midpoint. Low values mean greater potency, high ones weaker potency. In the case of `C=CC(=O)Nc1ccccc1-c1c(CC)nc2n(CC(=O)Nc3ccc(C(F)(F)F)cc3)c(C3CCC3)nn2c1=O` [Example 3, N-(2-(2-Cyclobutyl-5-ethyl-7-oxo-3-(2-oxo-2-((4-(trifluoromethyl)phenyl)amino)ethyl)-3,7-dihydro-[1,2,4]triazolo[1,5-a]pyrimidin-6-yl)phenyl)acrylamide], the concentration for half-maximal inhibition (IC50) against WRN [1] and against WRN [2] was 0.1 to 0.5 µM throughout.
Regarding `C=CC(=O)Nc1ccccc1-c1c(CC)nc2n(CC(=O)Nc3ccc(C(F)(F)F)cc3)c(C3CCNCC3)nn2c1=O` [Example 6, N-(2-(5-Ethyl-7-oxo-3-(2-oxo-2-((4-(trifluoromethyl)phenyl)amino)ethyl)-2-(piperidin-4-yl)-3,7-dihydro-[1,2,4]triazolo[1,5-a]pyrimidin-6-yl)phenyl)acrylamide], the IC50 against WRN [1] and against WRN [2] was 1 to 5 µM throughout.
As for `C=CC(=O)Nc1ccccc1-c1c(CC)nc2n(CC(=O)Nc3ccc(C(F)(F)F)cc3)c(-c3cccs3)nn2c1=O` [Example 5, N-(2-(5-ethyl-7-oxo-3-(2-oxo-2-((4-(trifluoromethyl)phenyl)amino)ethyl)-2-(thiophen-2-yl)-3,7-dihydro-[1,2,4]triazolo[1,5-a]pyrimidin-6-yl)phenyl)acrylamide], the IC50 against WRN [1] and on WRN [2] was 0.1 to 0.5 µM in each case.
In the case of `C=CC(=O)Nc1ccccc1-c1c(CC)nc2n(CC(=O)Nc3ccc(C(F)(F)F)cc3)c(C3CC3)nn2c1=O` [Example 2, N-(2-(2-Cyclopropyl-5-ethyl-7-oxo-3-(2-oxo-2-((4-(trifluoromethyl)phenyl)amino)ethyl)-3,7-dihydro-[1,2,4]triazolo[1,5-a]pyrimidin-6-yl)phenyl)acrylamide], the half-inhibitory concentration (IC50) on WRN [1] and on WRN [2] was < 0.1 µM in each case.
As to `C=CC(=O)Nc1ccccc1-c1c(CC)nc2n(CC(=O)Nc3ccc(C(F)(F)F)cc3)c(C)nn2c1=O` [Example 1, N-(2-(5-Ethyl-2-methyl-7-oxo-3-(2-oxo-2-((4-(trifluoromethyl)phenyl)amino)ethyl)-3,7-dihydro-[1,2,4]triazolo[1,5-a]pyrimidin-6-yl)phenyl)acrylamide], the 50% inhibitory concentration (IC50) against WRN [1] and at WRN [2] was < 0.1 µM throughout.
As for `C=CC(=O)Nc1ccccc1-c1c(CC)nc2n(CC(=O)Nc3ccc(C(F)(F)F)cc3)c(C3CCCCC3)nn2c1=O` [Example 4, N-(2-(2-Cyclohexyl-5-ethyl-7-oxo-3-(2-oxo-2-((4-(trifluoromethyl)phenyl)amino)ethyl)-3,7-dihydro-[1,2,4]triazolo[1,5-a]pyrimidin-6-yl)phenyl)acrylamide], the results for the half-maximal inhibitory concentration (IC50) at WRN [1] and against WRN [2] were 1 to 5 µM and 5 to 20 µM, respectively.
